Assay results as given in publication PMC11016601, “Exploring the bioaccessibility and intestinal absorption of major classes of pure phenolic compounds using in vitro simulated gastrointestinal digestion” (Heliyon, 2024).
Several values for one entry are separate records, joined by “and”; a condition that tells them apart may be missing. Identical values can stand only once. Like-named read-outs stand apart in the source and are kept apart here. Marks after values point to notes of the source that are not given here.

Key:
[1] = In vitro simulated gastrointestinal digestion (SGD, INFOGEST 2.0): concentration and bioaccessibility by UHPLC-DAD-MSn; details: for Bioaccessibility (%), initial solution (IS): reference
Description: Preliminary solubility tests in different solvents, namely water, sodium phosphate buffer (26.8 mM, pH 6.1), ethanol, and also a mixture of ethanol with both water and sodium phosphate buffer, were carried out for each PC (data not shown), to prevent erroneous data arising from compounds precipitation. Ethanol percentages used in these preliminary solubility tests were 10, 15, and 20% (v/v).
Each PC solubilized in ethanol:water (15% v/v) was then submitted to an in vitro SGD (INFOGEST 2.0), according to a standardized protocol (Fig. 2). In order to determine whether the interaction between the compounds and enzymes led to an underestimation of their content, each PC solution was submitted to the same digestion procedure, replacing the enzyme solutions with water, which were designed as controls, henceforth this will be the term used. Each sample and control were submitted to three independent in vitro digestion simulations, and after each digestion phase, a sample/control was collected and further analyzed and quantified by UHPLC-DAD-MSn.
(§1) Mouth digestion of each PC solution (1 mL) was diluted in 0.8 mL of simulated salivary fluid (SSF) and α-amylase (75 U mL-1). Then, the mixture was incubated for 2 min at 37 °C under agitation (200 rpm). In order to start gastric digestion, pH was adjusted to 3.0 using 1 M aqueous HCl and then, a pepsin solution (2000 U mL-1) and simulated gastric fluid (SGF) were added. Subsequently, the mixture was incubated for 2h, at 37 °C and 130 rpm orbital agitation for the stomach digestion. Finally, the small intestine digestion simulation was performed after pH adjustment to 7.0 using 1 M aqueous […] and the addition of pancreatin (100 U mL-1), bile salts solution (10 mM) and simulated intestinal fluid (SIF), during 2 h, at 37 °C with 45 rpm orbital agitation. Natural small intestine absorption was also simulated, by placing the remaining sample in a dialysis membrane, and immersed in distilled water overnight at room temperature.
At each sampling point, an aliquot (0.5 mL) from each of the three replicates was collected. The enzymatic activity was stopped immediately by adding pure methanol to each aliquot (1:1, v/v) to promote enzyme precipitation and subsequently centrifuged at 10 000 g and 4 °C for 5 min. The supernatants were filtered with a 0.2 μm nylon filter. To determine the concentration of each sample or control, it was considered the following dilution factor – 1:2, 1:4 and 1:8 for oral, gastric and intestinal digestion phase, respectively.
The bioaccessibility percentage (B%) of each PC was calculated using equation (1):(1) B(%)=[DS]/[IS]×100 where IS is the initial concentration of PCs in ethanol:water (15% v/v) solutions, DS is the concentration of each collected sample or control (without enzymes).
(§2) The values of B% and IA% were the average of the three replicates performed, with the calculated standard deviation.
PCs were analyzed in a UHPLC system equipped with a variable loop Accela autosampler (set at 16 °C), an Accela 600 LC pump, and an Accela 80 Hz photo diode array detector (DAD) (Thermo Fisher Scientific, San Jose, CA, USA). Each sample was prepared in methanol:water (1:1, v/v) and filtered through a 0.2 μm nylon syringe filter. […] The mobile phase was composed of acetonitrile (A) and water:acetonitrile (99:1, v/v) (B), both with 0.1 % of formic acid. The gradient elution was performed as follows: 0–1min: 99% B; 1–17 min: 99-73% B, 17–20 min: 73-0% B, 20–25 min: 0–99% B, followed by re-equilibration of the column at 99% B for 4 min.

[2] = Simulation of intestinal absorption using a dialysis membrane (3 kDa) after in vitro SGD
Description: HPLC-grade methanol, water, and acetonitrile were supplied by Fisher Scientific Chemicals. The enzymes α-amylase (A1031), pepsin from porcine stomach mucosa (P7012), pancreatin from porcine pancreas (P7545), and bile salts (B863) were purchased from Sigma-Aldrich (Taufkirchen, Germany). The rabbit gastric extract (RGE15) with gastric lipase activity was purchased from Lipolytech (Marseille, France). The ethanol was purchased from Merck (Algés, Portugal). A dialysis membrane with a molecular pore size of 3 kDa was purchased from Spectra/Pro (Spectrum Lab, Breda, Netherlands).
as §1
Furthermore, to determine the intestinal absorption, the aliquots collected inside the dialysis membrane were analyzed. The concentration of these samples (from inside of the membrane) corresponds to the amount of each PC that has not passed through to the outside of the membrane.
as §2

Caco-2 cell monolayers = details: Caco-2; ref Tourniaiere et al. (2005); cited from earlier work
[3] = samples with enzymes, after intestinal digestion pH 7.0
[4] = samples with enzymes, after oral digestion
[5] = controls (without enzymes), gastric phase
[6] = controls (without enzymes), initial solution
[7] = controls (without enzymes), intestinal phase
[8] = controls (without enzymes), oral phase
[9] = samples with enzymes, after gastric digestion pH 3.0
[10] = samples with enzymes, gastric phase
[11] = samples with enzymes, intestinal phase
[12] = samples with enzymes, oral phase
[13] = samples, initial ethanol:water (15% v/v) solution

| SMILES | Concentration, intestinal phase (I) [1, 3] [µg/mL] | Concentration, oral phase (O) [1, 4] [µg/mL] | Concentration, dialysis phase (D) [2] | Bioaccessibility (%), oral phase (O) ([1]; 2 min) | Bioaccessibility (%), gastric phase (G) [1, 5] | Concentration, gastric phase (G) [1, 5] [µg/mL] | Concentration, initial solution (IS) [1, 6] [µg/mL] | Bioaccessibility (%), initial solution (IS) [1, 6] | Concentration, intestinal phase (I) [1, 7] [µg/mL] | Bioaccessibility (%), oral phase (O) [1, 8] | Concentration, oral phase (O) [1, 8] [µg/mL] | Concentration, gastric phase (G) [1, 9] [µg/mL] | Bioaccessibility (%), gastric phase (G) [1, 10] | Bioaccessibility (%), intestinal phase (I) [1, 11] | Bioaccessibility (%), oral phase (O) [1, 12] [%] | Concentration, initial solution (IS) [1, 13] [µg/mL] | Bioaccessibility (%), initial solution (IS) ([1]; samples, initial solution) | Concentration, dialysis phase (D) ([2]; pig) [µg/mL] | other results |
| --- | --- | --- | --- | --- | --- | --- | --- | --- | --- | --- | --- | --- | --- | --- | --- | --- | --- | --- | --- |
| O=c1oc2c(O)c(O)cc3c(=O)oc4c(O)c(O)cc1c4c23 [EA, ellagic acid] | 5.20 ± 0.10 | 4.78 ± 1.75 | below the detection limit | – | – | – | – | – | – | – | – | – | – | – | – | – | – | – | Intestinal absorption (IA%) [2]: very high |
| O=C1C[C@@H](c2ccc(O)cc2)Oc2cc(O)cc(O)c21 [NAR, (+)-naringenin] | 233.10 ± 102.39 | 347.95 ± 19.67 | 3.29 ± 0.96 µg/mL | 97.26 ± 5.50% | 84.37% and 84.37 ± 4.60% | 301.86 ± 16.45 | 357.76 | 100% | 246.82 ± 120.35 | 102.62% and 102.62 ± 1.12% | 367.13 ± 4.00 | 282.96 ± 24.94 | 79.09% and 79.09 ± 6.97% | 65.15% and 65.15 ± 28.62% | 97.26 | 357.76 | 100% | 17.50 ± 3.80 | Bioaccessibility (%), intestinal phase (I) [1, 7]: 68.99% and 68.99 ± 33.64% |
| C[C@@H]1O[C@@H](O[C@H]2[C@H](Oc3cc(O)c4c(c3)O[C@H](c3ccc(O)cc3)CC4=O)O[C@H](CO)[C@@H](O)[C@@H]2O)[C@H](O)[C@H](O)[C@H]1O [NARN, naringin] | 351.21 ± 53.27 | – | 4.46 ± 0.44 µg/mL | 133.20 ± 16.03^ a % | 132.25 ± 6.73^ a % | 332.53 ± 16.91 | 251.44 | 100 ^a % | 319.15 ± 27.85 | 128.18 ± 14.55^ a % | 322.30 ± 36.59 | 365.14 ± 71.37 | 145.2% and 145.22 ± 28.38^ a % | 139.68% and 139.68 ± 21.19^ a % | 133.2 | 251.44 | 100 ^a % | 17.29 ± 1.75 | Concentration, oral phase (O) ([1]; 2 min): 334.93 ± 40.32 µg/mL; Papp value of apical to basolateral direction (Caco-2 cell monolayers): low |
